Source: PMC6154005, “From Cell to Beak: In-Vitro and In-Vivo Characterization of Chicken Bitter Taste Thresholds” (Molecules : A Journal of Synthetic Chemistry and Natural …, 2017)
Structures can show the parent of a compound that is named as a salt.

How the values were obtained:
Experiment in all cases: calcium imaging (Fluo4-AM, FLIPR) in transfected cells
Type in all cases: cell-based
Details in all cases: agonist; HEK 293T-Galpha16gust44 cells; 2.5 mM probenecid at dye loading; lowest activating concentration, no EC50
ggTas2r7 = biological target: T1, ggTas2r7 (Gallus gallus, UniProt Q2AB81)
T1 construct: gene TAS2R7; cDNA in pcDNA5FRT, transiently expressed in HEK 293T-Galpha16gust44 cells
T1 sequence (Q2AB81 1-321): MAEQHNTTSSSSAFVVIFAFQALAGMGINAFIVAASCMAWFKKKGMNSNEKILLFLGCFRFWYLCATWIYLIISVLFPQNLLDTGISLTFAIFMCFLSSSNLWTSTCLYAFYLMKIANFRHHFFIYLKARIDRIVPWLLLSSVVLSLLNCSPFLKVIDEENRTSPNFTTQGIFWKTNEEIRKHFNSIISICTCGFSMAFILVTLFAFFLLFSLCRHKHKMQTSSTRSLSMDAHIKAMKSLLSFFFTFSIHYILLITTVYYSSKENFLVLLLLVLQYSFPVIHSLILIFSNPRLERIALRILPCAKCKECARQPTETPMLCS

ggTas2r1 = biological target: T2, ggTas2r1 (Gallus gallus, UniProt Q2AB83)
T2 construct: gene TAS2R40; cDNA in pcDNA5FRT, transiently expressed in HEK 293T-Galpha16gust44 cells
T2 sequence (Q2AB83 1-311): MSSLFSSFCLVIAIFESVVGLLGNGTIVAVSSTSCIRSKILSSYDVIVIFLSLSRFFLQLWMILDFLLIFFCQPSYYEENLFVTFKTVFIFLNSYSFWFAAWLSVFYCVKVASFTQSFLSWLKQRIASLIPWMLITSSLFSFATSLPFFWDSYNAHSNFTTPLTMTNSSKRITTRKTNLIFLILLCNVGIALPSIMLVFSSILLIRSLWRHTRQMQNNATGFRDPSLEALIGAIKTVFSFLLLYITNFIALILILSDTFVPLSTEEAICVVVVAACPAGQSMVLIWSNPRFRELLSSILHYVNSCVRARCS

ggTas2r2 = biological target: T3, ggTas2r2 (Gallus gallus, UniProt A0A1D5PXM6)
T3 construct: gene LOC101747503; cDNA in pcDNA5FRT, transiently expressed in HEK 293T-Galpha16gust44 cells
T3 sequence (A0A1D5PXM6 1-311): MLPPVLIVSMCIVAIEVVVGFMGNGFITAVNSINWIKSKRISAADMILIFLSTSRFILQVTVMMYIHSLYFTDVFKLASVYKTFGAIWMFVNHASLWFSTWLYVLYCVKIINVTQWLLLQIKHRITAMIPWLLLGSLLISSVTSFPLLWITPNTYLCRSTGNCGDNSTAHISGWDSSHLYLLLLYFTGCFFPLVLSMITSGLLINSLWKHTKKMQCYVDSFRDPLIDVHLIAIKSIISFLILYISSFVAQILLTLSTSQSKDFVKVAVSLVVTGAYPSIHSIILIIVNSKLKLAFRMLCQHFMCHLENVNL

Row | Compound | Threshold Concentrations (mM) / In-Vitro (ggTas2r7) | Threshold Concentrations (mM) / In-Vitro (ggTas2r1) | Threshold Concentrations (mM) / In-Vitro (ggTas2r2)
1 | Oc1cc(O)c2c(c1)O[C@H](c1ccc(O)c(O)c1)[C@@H](O)C2 [(+)-catechin] | 0.3 mM | – | –
2 | C=C[C@H]1CN2CC[C@H]1C[C@H]2[C@H](O)c1ccnc2ccc(OC)cc12 [quinine hydrochloride] | 0.01 mM | 0.01 mM | 0.01 mM
